These results are taken from PubChem BioAssay AID248 (DTP/NCI, 2004).

The structures appear in SMILES notation. “And” between values parts separate entries of the source, which are not always exact repeats. Equal values may be shown once. Inconclusive results and toxic doses are left out.

This test deals with L1210 leukemia ip in BDF1 mice, survival T/C. Description: NCI In Vivo Anticancer Drug Screen. Data for tumor model L1210 Leukemia (intraperitoneal) in B6D2F1 (BDF1) mice. To be noted: endpoint: mean survival time, higher = longer survival. In short, it runs like this:
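Tumor was transplanted into mice, which were then dosed with test compound or vehicle alone. Survival was recorded for each group, and the treated figure was expressed relative to the control figure.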

The mark [1] stands for this setting: dose: 400.0 mg/kg/injection, schedule: Q01DX009 (ip), vehicle: carboxymethylcellulose (CMC).
The mark [2] stands for this setting: dose: 100.0 mg/kg/injection, schedule: Q01DX001 (ip), vehicle: saline.
Setting [3] is: dose: 100.0 mg/kg/injection, schedule: Q04DX002 (ip), vehicle: Klucel (hydroxypropylcellulose) (HPC).
Where [4] appears, read: dose: 200.0 mg/kg/injection, schedule: Q04DX002 (ip), vehicle: Klucel (hydroxypropylcellulose) (HPC).
[5] abbreviates: dose: 400.0 mg/kg/injection, schedule: Q04DX002 (ip), vehicle: Klucel (hydroxypropylcellulose) (HPC).
Setting [6] is: dose: 100.0 mg/kg/injection, schedule: Q04DX003 (ip), vehicle: saline with Tween-80.
Where [7] appears, read: dose: 200.0 mg/kg/injection, schedule: Q04DX003 (ip), vehicle: saline with Tween-80.
Where [8] appears, read: dose: 400.0 mg/kg/injection, schedule: Q04DX003 (ip), vehicle: saline with Tween-80.
The mark [9] stands for this setting: dose: 100.0 mg/kg/injection, schedule: Q01DX001 (ip), vehicle: other.
[10] abbreviates: dose: 100.0 mg/kg/injection, schedule: Q01DX009 (ip), vehicle: saline.
[11] abbreviates: dose: 200.0 mg/kg/injection, schedule: Q01DX009 (ip), vehicle: saline.
[12] abbreviates: dose: 50.0 mg/kg/injection, schedule: Q01DX009 (ip), vehicle: saline.

Take `CCCCCCCCC(=O)N(CCC)CCC`: the T/C is, setting by setting: (dose: 100.0 mg/kg/injection, schedule: Q01DX009 (ip), vehicle: carboxymethylcellulose (CMC)) 94 % of control and 97 % of control; (dose: 100.0 mg/kg/injection, schedule: Q04DX002 (ip), vehicle: carboxymethylcellulose (CMC)) 96 % of control; (dose: 200.0 mg/kg/injection, schedule: Q01DX009 (ip), vehicle: carboxymethylcellulose (CMC)) 93 % of control and 96 % of control; (dose: 200.0 mg/kg/injection, schedule: Q04DX002 (ip), vehicle: carboxymethylcellulose (CMC)) 96 % of control; under setting [1], 94 % of control and 90 % of control; (dose: 400.0 mg/kg/injection, schedule: Q04DX002 (ip), vehicle: carboxymethylcellulose (CMC)) 96 % of control.

`CCN(CC)CCCNc1ccnc2cc(Cl)ccc12`: the T/C under setting [2] is 94 % of control.

On to `CC(=O)Cc1cc(C)nc(/N=C(\N)N2CCOCC2)n1`, for which the T/C was 100 % of control under setting [3], 92 % of control under setting [4] and 88 % of control under setting [5].

With `c1ccc2nc3c(nc2c1)[nH]c1ccccc13`, the T/C is 94 % of control (dose: 62.5 mg/kg/injection, schedule: Q01DX Z (ip), vehicle: carboxymethylcellulose (CMC)); 100 % of control (dose: 125.0 mg/kg/injection, schedule: Q01DX Z (ip), vehicle: carboxymethylcellulose (CMC)); 95 % of control (dose: 250.0 mg/kg/injection, schedule: Q01DX Z (ip), vehicle: carboxymethylcellulose (CMC)); 91 % of control (dose: 500.0 mg/kg/injection, schedule: Q01DX Z (ip), vehicle: carboxymethylcellulose (CMC)).

Turning to `CCOC(=O)/C=C(\C)C(C)=O`, the T/C was 92 % of control (dose: 100.0 mg/kg/injection, schedule: Q01DX009 (ip), vehicle: saline with Tween-80); 98 % of control under setting [6]; 96 % of control (dose: 200.0 mg/kg/injection, schedule: Q01DX009 (ip), vehicle: saline with Tween-80); 103 % of control under setting [7]; 92 % of control (dose: 400.0 mg/kg/injection, schedule: Q01DX009 (ip), vehicle: saline with Tween-80); 104 % of control under setting [8].

For the compound `NCc1cn(C2OC(CO)C(O)C2O)c2ncnc(N)c12` (centres undefined), the T/C by setting is: (dose: 1.56 mg/kg/injection, schedule: Q01DX009 (ip), vehicle: saline) 90 % of control; (dose: 3.12 mg/kg/injection, schedule: Q01DX005 (ip), vehicle: saline) 92 % of control; (dose: 3.12 mg/kg/injection, schedule: Q01DX009 (ip), vehicle: saline) 107 % of control; (dose: 6.25 mg/kg/injection, schedule: Q01DX005 (ip), vehicle: saline) 108 % of control.

Regarding `Oc1ccccc1OB(Oc1ccccc1O)N(CCCl)CCCl`, the T/C under setting [9] was 111 % of control.

Regarding `CCOc1ccc(N=Nc2c(C)nn(C(N)=S)c2-c2ccccc2)cc1`, the T/C was 103 % of control (dose: 10.0 mg/kg/injection, schedule: Q01DX001 (ip), vehicle: saline); 94 % of control (dose: 20.0 mg/kg/injection, schedule: Q01DX001 (ip), vehicle: saline); 88 % of control (dose: 40.0 mg/kg/injection, schedule: Q01DX001 (ip), vehicle: saline).

For `Cc1cc(C)c([I+]c2ccccc2C(=O)[O-])c(C)c1`, the T/C is 97 % of control (dose: 50.0 mg/kg/injection, schedule: Q01DX001 (ip), vehicle: saline); 105 % of control under setting [2]; 100 % of control (dose: 200.0 mg/kg/injection, schedule: Q01DX001 (ip), vehicle: saline); 103 % of control (dose: 400.0 mg/kg/injection, schedule: Q01DX001 (ip), vehicle: saline).

As to `OC(C#CC(O)c1ccccc1)c1ccccc1` (centres undefined), the T/C was 86 % of control under setting [10]; 97 % of control under setting [6]; 108 % of control under setting [11]; 94 % of control under setting [7]; 87 % of control under setting [8].

Consider `CCOC(=O)N1C2C(c3ccccc3)=NC(C)(C)N2C(c2ccc([N+](=O)[O-])cc2)N1C(=O)OCC` (centres undefined), for which the T/C runs as follows: under setting [9], 93 % of control; (dose: 200.0 mg/kg/injection, schedule: Q01DX001 (ip), vehicle: other) 102 % of control; (dose: 400.0 mg/kg/injection, schedule: Q01DX001 (ip), vehicle: other) 91 % of control.

For `CC1CN1P(=O)(N1CC1C)N1CC1C.CC1CN1P(=O)(N1CC1C)N1CC1C.CC1CN1P(=O)(N1CC1C)N1CC1C.CC1CN1P(=O)(N1CC1C)N1CC1C.[Cu+2].[O-][Cl+3]([O-])([O-])O` (centres undefined), the T/C is 111 % of control (dose: 25.0 mg/kg/injection, schedule: Q01DX009 (ip), vehicle: saline); 108 % of control (dose: 25.0 mg/kg/injection, schedule: Q04DX002 (ip), vehicle: saline); 119 % of control under setting [12]; 102 % of control (dose: 50.0 mg/kg/injection, schedule: Q04DX002 (ip), vehicle: saline); 92 % of control under setting [10]; 108 % of control and 119 % of control (dose: 100.0 mg/kg/injection, schedule: Q04DX002 (ip), vehicle: saline).

Regarding `COC(=O)c1ccc(C(F)(F)F)cc1O`, the T/C was 97 % of control (dose: 100.0 mg/kg/injection, schedule: Q04DX003 (ip), vehicle: Klucel (hydroxypropylcellulose) (HPC)); 100 % of control (dose: 200.0 mg/kg/injection, schedule: Q04DX003 (ip), vehicle: Klucel (hydroxypropylcellulose) (HPC)); 108 % of control (dose: 400.0 mg/kg/injection, schedule: Q04DX003 (ip), vehicle: Klucel (hydroxypropylcellulose) (HPC)).

Take `S=c1nc[nH]c2nc[nH]c12.[Ag]`: the T/C was 106 % of control and 92 % of control (dose: 3.0 mg/kg/injection, schedule: Q01DX009 (ip), vehicle: carboxymethylcellulose (CMC)); 101 % of control (dose: 6.0 mg/kg/injection, schedule: Q01DX009 (ip), vehicle: carboxymethylcellulose (CMC)); 113 % of control (dose: 12.0 mg/kg/injection, schedule: Q01DX009 (ip), vehicle: carboxymethylcellulose (CMC)); 113 % of control and 119 % of control (dose: 50.0 mg/kg/injection, schedule: Q01DX009 (ip), vehicle: carboxymethylcellulose (CMC)); 101 % of control under setting [1]; 154 % of control (dose: 600.0 mg/kg/injection, schedule: Q01DX009 (ip), vehicle: carboxymethylcellulose (CMC)). Moreover, the T/C runs as follows: (dose: 800.0 mg/kg/injection, schedule: Q01DX009 (ip), vehicle: carboxymethylcellulose (CMC)) 157 % of control and 159 % of control; (dose: 800.0 mg/kg/injection, schedule: Q01DX009 (ip), vehicle: saline) 154 % of control; (dose: 1000.0 mg/kg/injection, schedule: Q01DX009 (ip), vehicle: carboxymethylcellulose (CMC)) 119 % of control; (dose: 1000.0 mg/kg/injection, schedule: Q01DX009 (ip), vehicle: saline) 154 % of control.

With `CCS(=O)(=O)/C=C/c1ccco1`, the T/C was 98 % of control (dose: 12.5 mg/kg/injection, schedule: Q04DX003 (ip), vehicle: carboxymethylcellulose (CMC)) and 95 % of control (dose: 25.0 mg/kg/injection, schedule: Q04DX003 (ip), vehicle: carboxymethylcellulose (CMC)).

`OC(c1ccc(Cl)cc1)c1ccc(Cl)cc1`: the T/C is, setting by setting: (dose: 75.0 mg/kg/injection, schedule: Q01DX001 (ip), vehicle: acetone) 97 % of control; (dose: 150.0 mg/kg/injection, schedule: Q01DX001 (ip), vehicle: acetone) 97 % of control; (dose: 300.0 mg/kg/injection, schedule: Q01DX001 (ip), vehicle: acetone) 94 % of control.

As for `O=C(Oc1ccc([N+](=O)[O-])cc1)c1ccc(C[n+]2ccccc2)cc1`, the T/C reads like this: under setting [12], 97 % of control; under setting [10], 97 % of control and 104 % of control; (dose: 100.0 mg/kg/injection, schedule: Q04DX003 (ip), vehicle: saline) 97 % of control; under setting [11], 100 % of control and 106 % of control; (dose: 200.0 mg/kg/injection, schedule: Q04DX003 (ip), vehicle: saline) 90 % of control.

With `COC(=O)C1OC(n2cnc3c(N)ncnc32)C(O)C1O` (centres undefined), the T/C was 101 % of control (dose: 100.0 mg/kg/injection, schedule: Q01DX005 (ip), vehicle: saline) and 101 % of control (dose: 200.0 mg/kg/injection, schedule: Q01DX005 (ip), vehicle: saline).

For `COc1ccc(/C=C2\N=C(c3cccc([N+](=O)[O-])c3)OC2=O)cc1OC`, the T/C is 89 % of control under setting [3], 110 % of control under setting [4] and 100 % of control under setting [5].
